According to US10662100B2, “Chlorination-UV process for decomposition and detoxification of microcystin-LR” (priority 2016, dated 2020):
Several values for one entry are separate records, joined by “and”; a condition that tells them apart may be missing. Equal entries are not always repeated. Where two headings read alike, the source gives them in different places. Starred links: 1 amine or outer side, 2 acyl side, 3 side chain; linkers in the order of their positions; H or OH if unused. Positions of bridges follow the written chain, without caps; N, C: chain ends. Non-standard residues stand in square brackets, D forms with d. Residues, ends and D or L forms follow the SMILES beside them. Adda = CO[C@@H](Cc1ccccc1)[C@@H](C)/C=C(C)/C=C/[C@H](N[*:1])[C@H](C)C(=O)[*:2]; dAsp(3S-Me) = C[C@H](C(=O)[*:3])[C@@H](N[*:1])C(=O)[*:2]; d(γGlu) = O=C(O)[C@@H](CCC(=O)[*:2])N[*:1]; NMeDha = C=C(NC)C(=O)O

Assays:
[1] = 254 nm; cited from earlier work
[2] = UV254 photolysis and chlorine/UV process for MC-LR decomposition; assay type: physicochemical
Method: (§1) Free chlorine and MC-LR solutions were freshly prepared before each experiment. The initial MC-LR concentration was 2.00×10^−6 mol/L (2.00 mg/L). The pH of MC-LR solutions before addition of chlorine was 7.78. Initial MC-LR decomposition experiments were conducted in unbuffered solutions in order to mitigate against participation of buffers and other inorganic ions in the reactions; pH measurements were not conducted after initiation of the reactions due to limited reaction volumes. In experiments that were designed to examine the effects of pH on MC-LR behavior, 10 mM phosphate buffer was added into MC-LR solution. The pH of solution was adjusted to 6.5, 7.5, and 8.5 by addition of 50 mM sulfuric acid or 100 mM sodium hydroxide.
(§2) […]. […] Pre-chlorinated samples were then collected in headspace-free, gas-tight containers for subsequent UV irradiation at a characteristic wavelength of 254 nm using a flat-plate collimated beam.
Incident UV254 irradiance was 1.00×10^−4 W/cm^2, as measured by a calibrated radiometer (IL1700, International Light Technologies, Peabody, Mass., U.S.). UV254 doses applied in the experiments ranged from 0 to 720 mJ/cm^2 for exposure times ranging from 0 to 120 min. The actual UV254 doses delivered to the samples would have been slightly lower than these values because of the effects of reflection and absorbance, which were not accounted for. The collimated beam system used in these experiments has been described previously. Water samples were collected periodically for determination of MC-LR concentration and cytotoxicity, as described below. All experiments were conducted in triplicate and the values were expressed as mean±standard deviation (SD) from the replicate measurements.
A high-performance liquid chromatography (HPLC) system (Surveyor, Thermo Scientific, FL, U.S.) equipped with an Acclaim PepMap100 C18 column (250 mm×1.0 mm I.D., 5 μm particle size) was used to measure MC-LR concentration (Merel et al., (2009) Chemosphere 74: 832-839). The HPLC mobile phase was CH3CN/H2O/TFA (60:40:0.1). […]

[3] = system: NIH3T3 cells; assay type: cell-based, mouse
[4] = Chlorination of MC-LR, Total MC-LR by HPLC; assay type: physicochemical; details: pH 7.78
Method: as §1, §2
A high-performance liquid chromatography (HPLC) system (Surveyor, Thermo Scientific, FL, U.S.) equipped with an Acclaim PepMap100 C18 column (250 mm×1.0 mm I.D., 5 μm particle size) was used to measure MC-LR concentration (Merel et al., (2009) Chemosphere 74: 832-839). The HPLC mobile phase was CH3CN/H2O/TFA (60:40:0.1). Sample injection volumes were 20 μL with a flow rate of 1.0 mL/min. Detection was performed using a photodiode array at 238 nm. […]

[5] = system: Hep3B cells; assay type: cell-based, human
[6] = cited from earlier work

CN1CC(=O)NC1=N [creatinine]
quantum yield Φ254 for photodegradation [1]: 0.011±0.002 mol/E

C=C1C(=O)N[C@H](C)C(=O)N[C@@H](CC(C)C)C(=O)N[C@@H](C(=O)O)[C@H](C)C(=O)N[C@@H](CCCNC(=N)N)C(=O)N[C@@H](/C=C/C(C)=C/[C@H](C)[C@H](Cc2ccccc2)OC)[C@H](C)C(=O)N[C@@H](C(=O)O)CCC(=O)N1C [MC-LR] (R[Adda][d(γGlu)][NMeDha][dA]L[dAsp(3S-Me)]-OH; lactam N-7)
MC-LR decomposition ([2]; pH 6.5): 64% | photodecay constant (pseudo first-order) ([2]; pH 7.78): 0.000146 s⁻¹ and 0.000169 s⁻¹ and 0.000179 s⁻¹ and 0.000223 s⁻¹ | MC-LR decomposition ([2]; pH 8.5): 83% | decrease of cell viability [3]: up to 76% | apparent second-order rate constant for chlorination of MC-LR [4]: 44.5 M⁻¹ s⁻¹ | concentration of MC-LR over time [4]: remained essentially constant | change of cell viability resulting from UV254 exposure alone [5]: modest increase | decrease of cell viability [5]: up to 89% | viability of Hep3B cells [5]: roughly 50% | relative cell viability of Hep3B ([5]; pH 6.5): 60% | relative cell viability of Hep3B ([5]; pH 8.5): roughly 80% | apparent second-order rate constant for chlorination of MC-LR ([6]; pH 6.1): 127.8 M⁻¹ s⁻¹ | apparent second-order rate constant for chlorination of MC-LR ([6]; pH 7): 91.5 M⁻¹ s⁻¹ | apparent second-order rate constant for chlorination of MC-LR ([6]; pH 8): 33.1 M⁻¹ s⁻¹

N-chloro-creatinine
molar absorptivity ε254 [1]: 3911 M⁻¹ cm⁻¹ | quantum yield Φ254 for photodegradation [1]: 0.144±0.011 mol/E
